In patent US12540141B2, “Spiropyrrolidine derived antiviral agents” (priority 2020, dated 2026):

Test system: 229E human corona virus (hCoV)
Experiment: 229E Live Virus Assay (MRC-5 cells, CPE read by ATPlite)
Assay type: cell-based, hCoV-229E
Details: not given

SMILES | EC50 [µM]
C[C@H](OC(=O)N[C@@H](CC(C)(C)C)C(=O)N1C[C@]2(C[C@H]1C#N)C(=O)Nc1ccc(Cl)cc12)c1ccc(F)cc1 [Example 494] | 0.1 to 1

Same assay, conditions: Human coronavirus 229E, MRC5; hCoV-229E live virus in MRC-5 cells, MOI 0.05, CPE by ATPlite; run in duplicate

SMILES | EC50 [µM]
CN(C(=O)[C@@H](O)c1ccc(F)cc1)[C@@H](CC1CC1)C(=O)N1C[C@]2(C[C@H]1C#N)C(=O)Nc1ccccc12 [Example 414, (S)—N—((S)-1-((3R,5′S)-5′-cyano-2-oxospiro[indoline-3,3′-pyrrolidin]-1′-yl)-3-cyclopropyl-1-oxopropan-2-yl)-2-(4-fluorophenyl)-2-hydroxy-N-methyl acetamide] | < 0.1
CC(C)C[C@@H](C(=O)N1C[C@]2(C[C@H]1C#N)C(=O)Nc1ccccc12)N(C)C(=O)c1ccc(-c2ccccc2)cn1 [Example 232] | < 0.1
[2H]C([2H])([2H])N(C(=O)[C@H](O)c1ccc(F)cc1)[C@@H](CC1CC1)C(=O)N1C[C@]2(C[C@H]1C#N)C(=O)Nc1ccccc12 [Example 422] | < 0.1
CN(C(=O)[C@H](O)c1ccc(F)cc1)[C@@H](CC1CC1)C(=O)N1C[C@]2(C[C@H]1C#N)C(=O)Nc1ccccc12 [Example 415] | < 0.1
CC(C)C[C@@H](C(=O)N1C[C@]2(C[C@H]1C#N)C(=O)Nc1ccccc12)N(C)C(=O)c1ccc2ccc(Br)cc2c1 [Example 230] | < 0.1
COc1cc(C(=O)N(C)[C@@H](CC(C)C)C(=O)N2C[C@]3(C[C@H]2C#N)C(=O)Nc2ccccc23)cc2c1=NC(C1CC1)N=2 (some centres unmarked) [Example 308] | 0.1 to 1
COc1cc(Cl)cc(C(=O)N(C)[C@@H](CC(C)C)C(=O)N2C[C@]3(C[C@H]2C#N)C(=O)Nc2ccccc23)c1 [Example 180] | < 0.1
CC(C)C[C@@H](C(=O)N1C[C@]2(C[C@H]1C#N)C(=O)Nc1ccccc12)N(C)C(=O)c1cc(OC2CC2)c2c(c1)=NC(C1CC1)N=2 (some centres unmarked) [Example 307] | 0.1 to 1

Same assay, conditions: hCoV-229E live virus in MRC-5 cells, MOI 0.05, CPE by ATPlite; run in duplicate

SMILES | EC50 [µM]
COc1cc(C(=O)N(C)[C@@H](CC(C)C)C(=O)N2C[C@]3(C[C@H]2C#N)C(=O)Nc2ccccc23)cn2cc(C(F)F)nc12 [Example 255] | < 0.1

Target: SARS-CoV-2 3CL-protease (Severe acute respiratory syndrome coronavirus 2, UniProt P0DTD1)
Experiment: SARS-CoV-2 3C-Like (3CL) Protease Fluorescence Assay (FRET)
Assay type: biochemical
Details: SARS-CoV-2 3CL-protease 10 nM, 30 min preincubation at RT, substrate 40 μM

SMILES | IC50 [µM]
CN(C(=O)[C@@H](O)c1ccc(F)cc1)[C@@H](CC1CC1)C(=O)N1C[C@]2(C[C@H]1C#N)C(=O)Nc1ccccc12 [Example 414, (S)—N—((S)-1-((3R,5′S)-5′-cyano-2-oxospiro[indoline-3,3′-pyrrolidin]-1′-yl)-3-cyclopropyl-1-oxopropan-2-yl)-2-(4-fluorophenyl)-2-hydroxy-N-methyl acetamide] | < 0.1
CC(C)C[C@@H](C(=O)N1C[C@]2(C[C@H]1C#N)C(=O)Nc1ccccc12)N(C)C(=O)c1ccc(-c2ccccc2)cn1 [Example 232] | 0.1 to 1
[2H]C([2H])([2H])N(C(=O)[C@H](O)c1ccc(F)cc1)[C@@H](CC1CC1)C(=O)N1C[C@]2(C[C@H]1C#N)C(=O)Nc1ccccc12 [Example 422] | < 0.1
CN(C(=O)[C@H](O)c1ccc(F)cc1)[C@@H](CC1CC1)C(=O)N1C[C@]2(C[C@H]1C#N)C(=O)Nc1ccccc12 [Example 415] | < 0.1
CC(C)C[C@@H](C(=O)N1C[C@]2(C[C@H]1C#N)C(=O)Nc1ccccc12)N(C)C(=O)c1ccc2ccc(Br)cc2c1 [Example 230] | 0.1 to 1
COc1cc(C(=O)N(C)[C@@H](CC(C)C)C(=O)N2C[C@]3(C[C@H]2C#N)C(=O)Nc2ccccc23)cc2c1=NC(C1CC1)N=2 (some centres unmarked) [Example 308] | < 0.1
COc1cc(Cl)cc(C(=O)N(C)[C@@H](CC(C)C)C(=O)N2C[C@]3(C[C@H]2C#N)C(=O)Nc2ccccc23)c1 [Example 180] | < 0.1
CN(C(=O)c1cnn(-c2ccc(C(F)(F)F)cc2)c1)[C@@H](CC1CC1)C(=O)N1C[C@]2(C[C@H]1C#N)C(=O)Nc1ccccc12 [Example 406] | < 0.1
CC(C)C[C@@H](C(=O)N1C[C@]2(C[C@H]1C#N)C(=O)Nc1ccccc12)N(C)C(=O)c1ccc(Cl)c(C(F)(F)F)c1 [Example 174] | < 0.1
CC(C)C[C@@H](C(=O)N1C[C@]2(C[C@H]1C#N)C(=O)Nc1ccccc12)N(C)C(=O)c1ccc2nn(C3CC3)cc2c1 [Example 339] | 0.1 to 1
CC(C)C[C@@H](C(=O)N1C[C@]2(C[C@H]1C#N)C(=O)Nc1ccccc12)N(C)C(=O)c1ccc(F)cn1 [Example 198] | 0.1 to 1
CC(C)C[C@@H](C(=O)N1C[C@]2(C[C@H]1C#N)C(=O)Nc1ccccc12)N(C)C(=O)c1cn(-c2cccc(Cl)c2)nn1 [Example 286] | < 0.1
CC(C)C[C@@H](C(=O)N1C[C@]2(C[C@H]1C#N)C(=O)Nc1ccccc12)N(C)C(=O)c1cccc2cnccc12 [Example 215] | < 0.1
CC(C)(F)C[C@H](NC(=O)c1cccc(OC(F)(F)F)c1)C(=O)N1C[C@]2(C[C@H]1C#N)C(=O)Nc1ccc(Cl)cc12 [Example 447] | < 0.1
CC(C)C[C@@H](C(=O)N1C[C@]2(C[C@H]1C#N)C(=O)Nc1ccccc12)N(C)C(=O)c1cc(F)c2nc(C3CC3)c(C(=O)C(F)(F)F)n2c1 [Example 314] | 0.1 to 1
CC(C)C[C@@H](C(=O)N1C[C@]2(C[C@H]1C#N)C(=O)Nc1ccccc12)N(C)C(=O)c1cccc2ncc(F)cc12 [Example 304] | < 0.1
C[C@H](C(=O)N(C)[C@@H](CC(C)(C)C)C(=O)N1C[C@]2(C[C@H]1C#N)C(=O)Nc1ccccc12)c1cnn(C)c1 [Example 373] | < 0.1
[2H]C([2H])([2H])N(C(=O)C1(c2ccncc2)CC1)[C@@H](CC(C)(C)F)C(=O)N1C[C@]2(C[C@H]1C#N)C(=O)Nc1ccc(Cl)cc12 [Example 475] | < 0.1
CC(C)C[C@@H](C(=O)N1C[C@]2(C[C@H]1C#N)C(=O)Nc1ccccc12)N(C)C(=O)c1cc2cncnc2[nH]1 [Example 489] | < 0.1
CC(C)(F)C[C@H](NC(=O)c1ccc(F)cc1F)C(=O)N1C[C@]2(C[C@H]1C#N)C(=O)Nc1ccc(Cl)cc12 [Example 449] | 0.1 to 1

SMILES | IC50 [µM]
CC(C)C[C@@H](C(=O)N1C[C@]2(C[C@H]1C#N)C(=O)Nc1ccc(-c3ccsc3)cc12)N(C)C(=O)c1cc2c(F)cc(F)cc2[nH]1 [Example 513] | < 0.1
CC(C)C[C@@H](C(=O)N1C[C@]2(C[C@H]1C#N)C(=O)Nc1ccccc12)N(C(=O)C(F)(F)F)C(C)C [Example 432] | > 1
CC(C)C[C@@H](C(=O)N1C[C@]2(C[C@H]1C#N)C(=O)Nc1ccccc12)N(C)C(=O)c1ccccc1Cl [Example 162] | < 0.1
CC(C)C[C@@H](C(=O)N1C[C@]2(C[C@H]1C#N)C(=O)Nc1ccccc12)N(C)C(=O)c1cn(-c2ccc(Cl)cc2)nn1 [Example 284] | < 0.1
[2H]C([2H])([2H])N(C(=O)c1cnn2cc(Cl)ccc12)[C@@H](CCCC)C(=O)N1C[C@]2(C[C@H]1C#N)C(=O)Nc1ccccc12 [Example 398] | < 0.1
CC(C)C[C@@H](C(=O)N1C[C@]2(C[C@H]1C#N)C(=O)Nc1ccccc12)N(C)C(=O)c1ccccc1-c1ccccc1 [Example 261] | 0.1 to 1
CN(C(=O)c1cn(C(C)(C)C)nn1)[C@@H](CC1CC1)C(=O)N1C[C@]2(C[C@H]1C#N)C(=O)Nc1ccccc12 [Example 402] | < 0.1
CC(C)C[C@@H](C(=O)N1C[C@]2(C[C@H]1C#N)C(=O)Nc1ccccc12)N(C)C(=O)c1c(Cl)ccc(Cl)c1F [Example 169] | < 0.1
CC(C)C[C@H](NC(=O)c1cc2c(F)cccc2[nH]1)C(=O)N1C[C@]2(C[C@H]1C#N)C(=O)Nc1cccc(Cl)c12 [Example 528] | 0.1 to 1
CCCC[C@H](NC(=O)c1cnn(C(C)(C)C)c1)C(=O)N1C[C@]2(C[C@H]1C#N)C(=O)Nc1ccccc12 [Example 131] | < 0.1
CC(C)C[C@@H](C(=O)N1C[C@]2(C[C@H]1C#N)C(=O)Nc1ccccc12)N(C)C(=O)c1cc(OC(F)(F)F)c2ncccc2c1 [Example 322] | < 0.1
CN(C)CCC(=O)N(C)[C@@H](CC(C)(C)F)C(=O)N1C[C@]2(C[C@H]1C#N)C(=O)Nc1ccccc12 [Example 539, N—((S)-1-((3R,5′S)-5′-cyano-2-oxospiro[indoline-3,3′-pyrrolidin]-1′-yl)-4-fluoro-4-methyl-1-oxopentan-2-yl)-3-(dimethylamino)-N-methylpropanamide] | < 0.1
CC(C)C[C@@H](C(=O)N1C[C@]2(C[C@H]1C#N)C(=O)Nc1ccccc12)N(C)C(=O)c1ccc(-c2ccccc2)cc1 [Example 277] | 0.1 to 1
CC(C)C[C@@H](C(=O)N1C[C@]2(C[C@H]1C#N)C(=O)Nc1ccccc12)N(C)C(=O)c1cc(F)c2nc(C(F)F)cn2c1 [Example 341] | 0.1 to 1
CN(C(=O)C1(c2ccccn2)CC1)[C@@H](CC(C)(C)F)C(=O)N1C[C@]2(C[C@H]1C#N)C(=O)Nc1ccc(Cl)cc12 [Example 478] | < 0.1
[2H]C([2H])([2H])N(C(=O)c1cn(CC(F)(F)F)nc1C1CC1)[C@@H](CC1CC1)C(=O)N1C[C@]2(C[C@H]1C#N)C(=O)Nc1ccccc12 [Example 401] | < 0.1
Cc1ccc2cc(C(=O)N(C)[C@@H](CC(C)(C)F)C(=O)N3C[C@]4(C[C@H]3C#N)C(=O)Nc3ccc(Cl)cc34)[nH]c2n1 [Example 471] | < 0.1
CC(C)C[C@@H](C(=O)N1C[C@]2(C[C@H]1C#N)C(=O)Nc1ccccc12)N(C)C(=O)c1cc(Cl)c2ncc(C(F)(F)F)cc2c1 [Example 240] | < 0.1
CC(C)C[C@@H](C(=O)N1C[C@]2(C[C@H]1C#N)C(=O)Nc1ccccc12)N(C)C(=O)c1cc(OC2CC2)c2c(c1)=NC(C1CC1)N=2 (some centres unmarked) [Example 307] | 0.1 to 1
CC(C)(C)C[C@H](NC(=O)c1cc(OC(F)F)c2ncccc2c1)C(=O)N1C[C@]2(C[C@H]1C#N)C(=O)Nc1ccccc12 [Example 139] | < 0.1
